Reference: US20250235543A1, “MODIFIED PROTEINS AND PROTEIN DEGRADERS” (Cullgen (Shanghai), Inc., priority 2021, published 2025)

Assays:
P300/CBP = P300/CBP cellular protein degradation; format: cell-based
Protocol: Cultured cells were washed with cold PBS once and lysed in cold RIPA buffer supplemented with protease inhibitors and phosphatase inhibitors (Beyotime Biotechnology). The solutions were then incubated at 4° C. for 30 min with gentle agitation to fully lysed cells. Cell lysates were centrifuged at 13,000 rpm for 10 min at 4° C. and pellets were discarded. Total protein concentrations in the lysates were determined following BCA assays (Beyotime Biotechnology). Cell lysates were mixed with Laemmli loading buffer and heated at 99° C. for 5 min. Proteins were resolved on SDS-PAGE and visualized using Western ECL Substrate kits on a ChemiDoc MP Imaging system (Bio-Rad). Protein bands were quantitated using the Image Lab software provided by Bio-Rad.

CDK4 = molecular target: T1, CDK4 (Homo sapiens, UniProt P11802); experiment: CDK4 percentage degradation in Calu-1 cells (immunoblotting); format: cell-based; details: Calu-1 cells, 200 nM, 16 hours; read-out: CDK4 Degradation (200 nM)
T1 construct: endogenous in cells; host or cells: Calu-1
T1 sequence (P11802 2-303 limits assumed): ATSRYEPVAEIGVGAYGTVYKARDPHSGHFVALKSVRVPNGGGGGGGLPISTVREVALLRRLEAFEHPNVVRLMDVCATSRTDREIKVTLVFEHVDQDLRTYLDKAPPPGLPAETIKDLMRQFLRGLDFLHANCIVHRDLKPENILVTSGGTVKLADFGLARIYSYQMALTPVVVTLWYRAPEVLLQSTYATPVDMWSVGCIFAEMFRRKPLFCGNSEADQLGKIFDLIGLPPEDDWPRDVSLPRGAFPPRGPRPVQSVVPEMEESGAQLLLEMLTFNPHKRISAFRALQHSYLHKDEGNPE
T1 sequence (P24385 whole entry partner): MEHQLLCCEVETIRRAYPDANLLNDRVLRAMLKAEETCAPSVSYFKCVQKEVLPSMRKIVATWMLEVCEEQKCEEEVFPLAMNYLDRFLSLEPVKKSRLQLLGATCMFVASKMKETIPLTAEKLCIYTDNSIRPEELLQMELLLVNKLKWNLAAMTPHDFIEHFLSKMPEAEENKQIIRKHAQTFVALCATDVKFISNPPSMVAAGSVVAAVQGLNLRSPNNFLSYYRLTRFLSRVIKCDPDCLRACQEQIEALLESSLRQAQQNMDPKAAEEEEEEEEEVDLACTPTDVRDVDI
T1 sequence (Q16531 2-1140 limits assumed, further chain): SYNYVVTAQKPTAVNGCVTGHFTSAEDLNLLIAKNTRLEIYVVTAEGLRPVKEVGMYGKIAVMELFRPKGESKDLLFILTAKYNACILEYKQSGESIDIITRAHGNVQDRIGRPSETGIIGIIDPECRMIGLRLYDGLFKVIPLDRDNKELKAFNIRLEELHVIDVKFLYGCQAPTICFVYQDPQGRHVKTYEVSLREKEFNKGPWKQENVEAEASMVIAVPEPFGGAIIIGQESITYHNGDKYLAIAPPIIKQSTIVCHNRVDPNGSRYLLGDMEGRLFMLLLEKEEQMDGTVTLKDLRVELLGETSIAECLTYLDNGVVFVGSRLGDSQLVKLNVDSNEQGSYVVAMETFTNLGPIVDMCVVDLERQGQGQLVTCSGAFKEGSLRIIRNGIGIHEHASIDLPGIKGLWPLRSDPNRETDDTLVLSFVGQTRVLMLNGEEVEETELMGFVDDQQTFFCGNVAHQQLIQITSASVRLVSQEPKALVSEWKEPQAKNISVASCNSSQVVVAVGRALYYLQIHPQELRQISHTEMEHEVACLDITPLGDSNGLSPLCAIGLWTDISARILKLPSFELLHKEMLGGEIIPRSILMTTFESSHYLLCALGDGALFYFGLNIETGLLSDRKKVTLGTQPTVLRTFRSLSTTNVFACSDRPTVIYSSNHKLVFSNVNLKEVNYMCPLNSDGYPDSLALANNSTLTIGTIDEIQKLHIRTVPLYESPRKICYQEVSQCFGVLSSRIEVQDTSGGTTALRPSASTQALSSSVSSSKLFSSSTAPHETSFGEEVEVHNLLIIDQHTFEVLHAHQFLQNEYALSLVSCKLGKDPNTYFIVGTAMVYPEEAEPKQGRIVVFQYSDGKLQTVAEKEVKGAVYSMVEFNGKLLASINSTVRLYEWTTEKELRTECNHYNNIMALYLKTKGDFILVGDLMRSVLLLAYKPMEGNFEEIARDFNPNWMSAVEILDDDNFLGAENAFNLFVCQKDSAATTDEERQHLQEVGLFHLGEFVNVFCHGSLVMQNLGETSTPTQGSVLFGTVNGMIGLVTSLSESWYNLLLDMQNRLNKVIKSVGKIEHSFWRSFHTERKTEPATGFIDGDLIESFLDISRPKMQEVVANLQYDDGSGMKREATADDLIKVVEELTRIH
Method in brief: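 Cultured cells were rinsed once in cold PBS and lysed in cold RIPA buffer containing protease and phosphatase inhibitors, with gentle agitation at 4° C. for 30 min. Lysates were centrifuged at 13,000 rpm for 10 min at 4° C., and protein was quantified by BCA. Samples were then separated by SDS-PAGE, detected with ECL, and the CDK4 bands quantified in Image Lab.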

cyclin D1 = experiment: Cyclin D1 percentage degradation in Calu-1 cells (immunoblotting); format: cell-based; details: 200 nM, 16 hours
Method in brief: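 Cells were rinsed once in cold PBS and lysed in cold RIPA buffer containing protease and phosphatase inhibitors, with gentle agitation at 4° C. for 30 min. Lysates were spun at 13,000 rpm for 10 min at 4° C., protein was measured by BCA, and samples were boiled in Laemmli buffer at 99° C. for 5 min before SDS-PAGE immunoblotting.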

DDB1 = molecular target: T2, DDB1 (Homo sapiens, UniProt Q16531, D705G/DEL396-460/DEL463-701/I704S/T703N); experiment: SPR binding assay to immobilized DDB1ΔBPB; details: binding affinities to DDB1
T2 construct: His6 (N, cleaved yes); TEV protease cleavage site (N, cleaved yes); made in house; host or cells: SF9 insect cells, Bac-to-Bac baculovirus, pFastBacHTB vector
T2 sequence (Q16531 other isoform, or with tags, fused parts or gaps DEL396-460/DEL463-701/T703N/I704S/D705G): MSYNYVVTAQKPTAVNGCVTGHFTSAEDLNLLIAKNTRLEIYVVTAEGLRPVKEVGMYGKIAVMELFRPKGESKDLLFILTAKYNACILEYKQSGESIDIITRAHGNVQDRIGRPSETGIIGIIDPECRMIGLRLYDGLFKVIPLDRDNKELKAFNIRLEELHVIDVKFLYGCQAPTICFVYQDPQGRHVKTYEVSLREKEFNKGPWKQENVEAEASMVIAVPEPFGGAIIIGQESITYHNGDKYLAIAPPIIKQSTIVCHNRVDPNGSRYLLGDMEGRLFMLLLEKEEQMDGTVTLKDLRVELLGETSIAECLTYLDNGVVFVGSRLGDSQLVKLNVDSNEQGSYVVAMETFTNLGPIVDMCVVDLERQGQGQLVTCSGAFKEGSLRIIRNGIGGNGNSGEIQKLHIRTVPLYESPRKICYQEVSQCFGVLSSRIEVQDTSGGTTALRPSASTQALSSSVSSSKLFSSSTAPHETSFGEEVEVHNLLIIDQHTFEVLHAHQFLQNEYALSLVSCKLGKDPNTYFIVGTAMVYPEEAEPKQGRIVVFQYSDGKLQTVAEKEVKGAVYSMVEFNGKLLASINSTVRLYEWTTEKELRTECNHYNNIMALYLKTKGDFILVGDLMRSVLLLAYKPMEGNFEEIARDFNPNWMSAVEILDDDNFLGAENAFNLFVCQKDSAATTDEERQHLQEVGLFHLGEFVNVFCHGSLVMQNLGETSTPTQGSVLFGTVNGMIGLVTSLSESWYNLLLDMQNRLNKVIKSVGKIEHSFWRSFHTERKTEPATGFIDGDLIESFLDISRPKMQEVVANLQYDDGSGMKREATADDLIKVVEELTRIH
Protocol: The binding affinities of heterobifunctional compounds to DDB1 were determined by SPR assay (FIG. 1A-1B). Purified DDB1ΔBPB proteins were immobilized on a CM5 sensor chip, and a dose range of compound solutions were injected in multi-cycle kinetic format. Data were fit to a steady state model to provide equivalent dissociation constants (Kd).
Human DDB1ΔBPB (UniProt: Q16531. BPB domain, aa 396 to 705, is replaced with a GNGNSG linker) coding sequences were cloned into pFastBacHTB vector and were expressed in SF9 cells using Bac-to-Bac baculovirus expression system (Thermo Fisher Scientific). The expression constructs include an N-terminal His6-tag to facilitate the purification, and a TEV protease cleavage site in between. DDB1ΔBPB proteins were obtained from supernatant of cell lysates and purified through sequential application of Ni affinity column (Ni-NTA column, Bio-Rad) and size-exclusion column (Superdex 200 16/600GL column, GE Healthcare) chromatography. Protein tags were cleaved off by TEV protease, and the resulting untagged proteins were further purified by Ni affinity column. Purified proteins were verified by immunoblotting, analytic SEC, and LC-MS.
SPR studies were performed on a Biacore X100 plus instrument (GE Healthcare). Immobilization of purified DDB1ΔBPB was carried out at 25° C. using a CM5 sensor chip. The surface was pre-equilibrated in HBS-EP running buffer (10 mM HEPES, pH7.4, 150 mM NaCl, 3 mM EDTA, 0.05% P20), before it was activated with EDC/NHS. DDB1ΔBPB proteins were immobilized by amine coupling to a density of 10,000-12,000 resonance units (RUs) on flow cell FC2, whereas flow cell FC1 was used as reference. Both protein immobilized and reference surfaces were deactivated with 1M ethanolamine. All interaction experiments were performed at 25° C. Test compounds were prepared and serially diluted in HBS-EP running buffer containing final 5% DMSO (6-point two-fold serial dilution, 100 μM-3.125 μM final concentration of compounds). Compound solutions were injected individually in multi-cycle kinetic format without regeneration (flow rate 30 μl/min, association time 120 s, dissociation time 120 s). Sensorgrams from reference surfaces and blank injections were subtracted from the raw data (double-referencing) and the data was solvent-corrected prior to analysis. All data were fit to steady state affinity model using Biacore Evaluation Software to provide equivalent dissociation constants (Kd).

CC(=O)N1CCc2c(c(N3CCCc4cc(-c5cnn(C)c5)c(C(F)F)cc43)nn2C2CCN(CC(=O)NCCCCCCCCCNc3ccc(C(=O)Nc4ncc(C)s4)c(C)c3)CC2)C1 [CPD-196, 4-((9-(2-(4-(5-Acetyl-3-(7-(difluoromethyl)-6-(1-methyl-1H-pyrazol-4-yl)-3,4-dihydroquinolin-1(2H)-yl)-4,5,6,7-tetrahydro-1H-pyrazolo[4,3-c]pyridin-1-yl)piperidin-1-yl)acetamido)nonyl)amino)-2-methyl-N-(5-methylthiazol-2-yl)benzamide]
P300/CBP Degradation (100 nM) (P300/CBP): D (degradation activity < 30%)

CC(=O)N1CCc2c(c(N3CCCc4cc(-c5cnn(C)c5)c(C(F)F)cc43)nn2C2CCN(CC(=O)NCCCCCC(=O)Nc3ccccc3C(=O)Nc3nc(C)c([N+](=O)[O-])s3)CC2)C1 [CPD-213, 2-(6-(2-(4-(5-Acetyl-3-(7-(difluoromethyl)-6-(1-methyl-1H-pyrazol-4-yl)-3,4-dihydroquinolin-1(2H)-yl)-4,5,6,7-tetrahydro-1H-pyrazolo[4,3-c]pyridin-1-yl)piperidin-1-yl)acetamido)hexanamido)-N-(4-methyl-5-nitrothiazol-2-yl)benzamide]
P300/CBP Degradation (100 nM) (P300/CBP): D (degradation activity < 30%)

CC(=O)N1CCc2c(c(N3CCCc4cc(-c5cnn(C)c5)c(C(F)F)cc43)nn2C2CCN(C(=O)CCCCCCC(=O)Nc3ccccc3C(=O)Nc3nc(C)c([N+](=O)[O-])s3)CC2)C1 [CPD-203, 2-(8-(4-(5-Acetyl-3-(7-(difluoromethyl)-6-(1-methyl-1H-pyrazol-4-yl)-3,4-dihydroquinolin-1(2H)-yl)-4,5,6,7-tetrahydro-1H-pyrazolo[4,3-c]pyridin-1-yl)piperidin-1-yl)-8-oxooctanamido)-N-(4-methyl-5-nitrothiazol-2-yl)benzamide]
P300/CBP Degradation (100 nM) (P300/CBP): D (degradation activity < 30%)

CC(=O)N1CCc2c(c(N3CCCc4cc(-c5cnn(C)c5)c(C(F)F)cc43)nn2C2CCN(C(=O)CCCCCCCCCCC(=O)Nc3ccccc3C(=O)Nc3nc(C)c([N+](=O)[O-])s3)CC2)C1 [CPD-207, 2-(12-(4-(5-Acetyl-3-(7-(difluoromethyl)-6-(1-methyl-1H-pyrazol-4-yl)-3,4-dihydroquinolin-1(2H)-yl)-4,5,6,7-tetrahydro-1H-pyrazolo[4,3-c]pyridin-1-yl)piperidin-1-yl)-12-oxododecanamido)-N-(4-methyl-5-nitrothiazol-2-yl)benzamide]
P300/CBP Degradation (100 nM) (P300/CBP): D (degradation activity < 30%)

CC(=O)N1CCc2c(c(N3CCCc4cc(-c5cnn(C)c5)c(C(F)F)cc43)nn2C2CCN(CC(=O)NCCCCCCCCNc3ccc(C(=O)Nc4ncc(C)s4)c(C)c3)CC2)C1 [CPD-195, 4-((8-(2-(4-(5-Acetyl-3-(7-(difluoromethyl)-6-(1-methyl-1H-pyrazol-4-yl)-3,4-dihydroquinolin-1(2H)-yl)-4,5,6,7-tetrahydro-1H-pyrazolo[4,3-c]pyridin-1-yl)piperidin-1-yl)acetamido)octyl)amino)-2-methyl-N-(5-methylthiazol-2-yl)benzamide]
P300/CBP Degradation (100 nM) (P300/CBP): D (degradation activity < 30%)

CC(=O)N1CCc2c(c(N3CCCc4cc(-c5cnn(C)c5)c(C(F)F)cc43)nn2C2CCN(CC(=O)NCC(=O)Nc3ccccc3C(=O)Nc3nc(C)c([N+](=O)[O-])s3)CC2)C1 [CPD-209, 2-(2-(2-(4-(5-Acetyl-3-(7-(difluoromethyl)-6-(1-methyl-1H-pyrazol-4-yl)-3,4-dihydroquinolin-1(2H)-yl)-4,5,6,7-tetrahydro-1H-pyrazolo[4,3-c]pyridin-1-yl)piperidin-1-yl)acetamido)acetamido)-N-(4-methyl-5-nitrothiazol-2-yl)benzamide]
P300/CBP Degradation (100 nM) (P300/CBP): D (degradation activity < 30%)

CC(=O)N1CCc2c(c(N3CCCc4cc(-c5cnn(C)c5)c(C(F)F)cc43)nn2C2CCN(CC(=O)NCCOCCOCCNc3ccc(C(=O)Nc4ncc(C)s4)c(C)c3)CC2)C1 [CPD-198, 4-((2-(2-(2-(2-(4-(5-Acetyl-3-(7-(difluoromethyl)-6-(1-methyl-1H-pyrazol-4-yl)-3,4-dihydroquinolin-1(2H)-yl)-4,5,6,7-tetrahydro-1H-pyrazolo[4,3-c]pyridin-1-yl)piperidin-1-yl)acetamido)ethoxy)ethoxy)ethyl)amino)-2-methyl-N-(5-methylthiazol-2-yl)benzamide]
P300/CBP Degradation (100 nM) (P300/CBP): D (degradation activity < 30%)

CC(=O)N1CCc2c(c(N3CCCc4cc(-c5cnn(C)c5)c(C(F)F)cc43)nn2C2CCN(CC(=O)NCCCCCCCCCCC(=O)Nc3ccccc3C(=O)Nc3nc(C)c([N+](=O)[O-])s3)CC2)C1 [CPD-218, 2-(11-(2-(4-(5-Acetyl-3-(7-(difluoromethyl)-6-(1-methyl-1H-pyrazol-4-yl)-3,4-dihydroquinolin-1(2H)-yl)-4,5,6,7-tetrahydro-1H-pyrazolo[4,3-c]pyridin-1-yl)piperidin-1-yl)acetamido)undecanamido)-N-(4-methyl-5-nitrothiazol-2-yl)benzamide]
P300/CBP Degradation (100 nM) (P300/CBP): D (degradation activity < 30%)

CC(=O)N1CCc2c(c(N3CCCc4cc(-c5cnn(C)c5)c(C(F)F)cc43)nn2C2CCN(C(=O)CCC(=O)Nc3ccccc3C(=O)Nc3nc(C)c([N+](=O)[O-])s3)CC2)C1 [CPD-199, 2-(4-(4-(5-Acetyl-3-(7-(difluoromethyl)-6-(1-methyl-1H-pyrazol-4-yl)-3,4-dihydroquinolin-1(2H)-yl)-4,5,6,7-tetrahydro-1H-pyrazolo[4,3-c]pyridin-1-yl)piperidin-1-yl)-4-oxobutanamido)-N-(4-methyl-5-nitrothiazol-2-yl)benzamide]
P300/CBP Degradation (100 nM) (P300/CBP): D (degradation activity < 30%)

CC(=O)c1c(C)c2cnc(Nc3ccc(N4CCN(CC(=O)NCCOCCOCCOCCOCCOCCNc5ccc(C(=O)Nc6nc(C(C)C)c(C)s6)c(C)c5)CC4)cn3)nc2n(C2CCCC2)c1=O [CPD-043, 4-((1-(4-(6-((6-Acetyl-8-cyclopentyl-5-methyl-7-oxo-7,8-dihydropyrido[2,3-d]pyrimidin-2-yl)amino)pyridin-3-yl)piperazin-1-yl)-2-oxo-6,9,12,15,18-pentaoxa-3-azaicosan-20-yl)amino)-N-(4-isopropyl-5-methylthiazol-2-yl)-2-methylbenzamide]
inhibition at 0.2 µM (CDK4): > 80%
CyclinD1 Degradation (200 nM) (cyclin D1): A (protein percentage degradation >=80%)
Kd (DDB1): < 20 µM

CC(=O)c1c(C)c2cnc(Nc3ccc(N4CCN(CC(=O)NCCOCCOCCOCCOCCOCCNc5ccc(C(=O)Nc6nc(C7CC7)c(C)s6)c(C)c5)CC4)cn3)nc2n(C2CCCC2)c1=O [CPD-046, 4-((1-(4-(6-((6-Acetyl-8-cyclopentyl-5-methyl-7-oxo-7,8-dihydropyrido[2,3-d]pyrimidin-2-yl)amino)pyridin-3-yl)piperazin-1-yl)-2-oxo-6,9,12,15,18-pentaoxa-3-azaicosan-20-yl)amino)-N-(4-cyclopropyl-5-methylthiazol-2-yl)-2-methylbenzamide]
inhibition at 0.2 µM (CDK4): > 80%
CyclinD1 Degradation (200 nM) (cyclin D1): A (protein percentage degradation >=80%)
Kd (DDB1): < 20 µM
